Test results as given in patent publication EP0458363B1, “Fluorinated bis(hydroxymethyl) cyclobutyl purines and pyrimidines” (E.R. SQUIBB & SONS, INC., priority 1990, dated 1991).
Where two headings read alike, the source gives them in different places.

Experiments:
Format in all cases: cell-based
[1] = tested on: VZV (varicella zoster virus, strain ELLEN); test: VZV antiviral plaque reduction assay in cell culture; details: WI-38 cell culture monolayers, at least 50% plaque reduction, 6-7 days incubation at 37°C, read-out: ID₅₀(µM) for the following viruses VZV
Method: (§1) Assays were performed in cell culture systems to determine the concentrations of compounds that are effective in preventing several kinds of viral infections.
(§2) HSV-1 (herpes simplex virus type 1, strain Schooler), HSV-2 (herpes simplex virus type 2, strain 186), VZV (varicella zoster virus, strain ELLEN), HCMV (human cytomegalovirus, strain AD 169), MuLV (murine leukemia virus, strain CAS).
(§3) HSV-1, HSV-2, HCMV, and VZV antiviral assays: Virus was adsorbed to WI-38 cell culture monolayers in 6 well culture plates (Costar, Cambridge, MA) for 1 hour prior to addition of maintenance medium containing duplicate dilutions of the test compound. Inhibition of plaque development was evaluated on fixed and stained monolayers after 4 days incubation at 37°C for HSV-1 and HSV-2 and after 6-7 days incubation at 37°C for HCMV and VZV. ID₅₀ values were determined from the drug concentration which conferred at least a 50% plaque reduction compared to virus controls.

[2] = tested on: HSV-1 (herpes simplex virus type 1, strain Schooler); test: HSV-1 antiviral plaque reduction assay in cell culture; details: WI-38 cell culture monolayers, at least 50% plaque reduction, 4 days incubation at 37°C, read-out: ID₅₀(µM) for the following viruses HSV-1
Method: as §1, §2, §3

[3] = tested on: HCMV (human cytomegalovirus, strain AD 169); test: HCMV antiviral plaque reduction assay in cell culture; details: WI-38 cell culture monolayers, at least 50% plaque reduction, 6-7 days incubation at 37°C, read-out: ID₅₀(µM) for the following viruses HCMV
Method: as §1, §2, §3

[4] = tested on: MuLV (murine leukemia virus, strain CAS); test: MuLV antiviral assay (XC syncytial plaque assay); details: SC1, SC-1 cells, XC cell overlay, syncytial plaques counted, read-out: ID₅₀(µM) for the following viruses MuLV
Method: as §1, §2
MuLV antiviral assay: Antiviral assays using MuLV were performed with some modification, as described by Rowe et al. and Shannon et al.. SC-1 cells were planted at approximately 2 x 10⁵ cell per well in 6 well plates. After overnight incubation at 37°C, the cell cultures were sensitised with DEAS-Dextran for one hour at 37°C, rinsed and inoculated with MuLV. Cultures were re-fed with growth medium containing different concentrations of the test compound. After three more days at 37°C, cultures were re-fed with fresh medium plus test compounds and incubated at 37°C for an additional 3 days. Cultures were then washed to remove medium, ultraviolet light irradiated, and planted with approximately 5 x 10⁵ XC cells per well in cell growth medium containing the appropriate concentration of the test compound. […] Finally the cultures were rinsed, stained and syncytial plaques were counted. […]

[5] = tested on: HSV-2 (herpes simplex virus type 2, strain 186); test: HSV-2 antiviral plaque reduction assay in cell culture; details: WI-38 cell culture monolayers, at least 50% plaque reduction, 4 days incubation at 37°C, read-out: ID₅₀(µM) for the following viruses HSV-2
Method: as §1, §2, §3

Row | SMILES | IC50 ([1]; Human alphaherpesvirus 3) [µM] | IC50 ([2]; Human alphaherpesvirus 1, 96 h) [µM] | IC50 ([3]; Human betaherpesvirus 5) [µM] | IC50 [4] [µM] | IC50 ([5]; Human alphaherpesvirus 2, 96 h) [µM] | IC50 [1] [µM] | IC50 [2] [µM] | IC50 [3] [µM] | IC50 [5] [µM]
1 | Nc1nc2c(ncn2[C@@H]2[C@@H](F)[C@H](CO)[C@H]2CO)c(=O)[nH]1 (racemic) [Compound I, (1α,2β,3α,4β)-2-Amino-9-[2-fluoro-3,4-bis(hydroxymethyl)cyclobutyl]-1,9-dihydro-6H-purin-6-one] | 1.8 to 3.5 | 0.7 to 1.8 | 3.5 to 35 | 3.5 to 7 | 0.7 | – | – | – | –
2 | Nc1ncnc2c1ncn2[C@@H]1[C@@H](F)[C@H](CO)[C@H]1CO (racemic) [Compound III, (1α,2β,3α,4β)-3-(6-Amino-9H-purin-9-yl)-4-fluoro-1,2-cyclobutanedimethanol] | 37 | 37 | 37 | – | 7.5 to 19 | – | – | – | –
3 | Nc1nc2c(ncn2[C@@H]2[C@@H](F)[C@H](CO)[C@H]2CO)c(=O)[nH]1 [Compound II, [1S-(1α,2β,3α,4β)]-2-Amino-9-[2-fluoro-3,4-bis(hydroxymethyl)cyclobutyl]-1,9-dihydro-6H-purin-6-one] | – | – | – | – | – | ≤ 0.7 | 0.7 to 1.8 | 18 to 35 | 0.4 to 0.7
4 | O=c1[nH]c(=O)n([C@@H]2[C@@H](F)[C@H](CO)[C@H]2CO)cc1/C=C/Br [Compound IV, [1S-(1α(E),2β,3α,4β)]-1-[2-fluoro-3,4-bis(hydroxymethyl)cyclobutyl]-5-(2-bromoethenyl)-2,4-(1H,3H)-pyrimidinedione] | 28.6 to 286 | > 286 | > 286 | – | > 286 | – | – | – | –
5 | O=c1[nH]c(=O)n([C@@H]2[C@@H](F)[C@H](CO)[C@H]2CO)cc1/C=C/I [Compound V, [1S-(1α(E),2β,3α,4β)]-1-[2-fluoro-3,4-bis(hydroxymethyl)cyclobutyl]-5-(2-iodoethenyl)-2,4-(1H,3H)-pyrimidinedione] | 2.5 to 25.2 | > 252 | > 252 | – | > 252 | – | – | – | –
